Experimental findings from patent publication US20220218827A1, “DELIVERY OF THERAPEUTIC COMPOUNDS WITH IRON OXIDE NANOPARTICLES” (Memorial Sloan Kettering Cancer Center, priority 2012, published 2022) are described below.

Molecules are shown by their SMILES.

In assay [1] the test system is human prostate adenocarcinoma cells (LNCaP). As to the kind of experiment: LNCaP cell viability, Alamar Blue method. The class given is cell-based. Conditions: 48 h, [Doxorubicin]final=7.5 μM, free or intercalated drug, read-out: reduction in cell viability.
Protocol: Cell viability and in vivo studies. LNCaP cells were seeded on black-walled, clear bottom 96-well plates at a cell density of 10,000 cells per well, supplemented with 100 iL 10% FBS-containing RPMI medium. […] Controls included cells incubated with unloaded nanoparticles or DMSO, corresponding to the free drug's final solvent concentration. Subsequently, the old medium was aspirated, and cell viability was assessed via the Alamar Blue method (Invitrogen). Briefly, the cells were supplemented with 10%-alamar-blue-containing medium (10% FBS-containing RPMI), followed by 3 h incubation in a humidified incubator (37° C., 5% CO2) and recording of fluorescence emission (λ ? =565 nm) with the SpectraMax M5 plate reader. […] Experiments were performed in triplicate unless otherwise stated, with the results are presented as mean±SEM.
Cell viability and in vivo studies. […] Subsequently, the old medium was aspirated, and cell viability was assessed via the Alamar Blue method (Invitrogen). Briefly, the cells were supplemented with 10%-alamar-blue-containing medium (10% FBS-containing RPMI), followed by 3 h incubation in a humidified incubator (37° C., 5% CO2) and recording of fluorescence emission ? ran, λειλ=585 nm) with the SpectraMax M5 plate reader.
The next assay relates to PC3 tumors. The assay is described as follows: Tumor growth in nude mice bearing PC3 tumors. It is filed as in vivo. Conditions: versus control animals.

Protocol for PC3 tumors: Nude, male mice (n=10) bearing PC3 tumors on their flanks were treated on day 0, day 2 and day 6 with 100 μι, either doxorubicin alone or doxorubi tin-loaded Feraheme®, both at a final doxorubicin concentration of 0.28 mM. Changes in tumor size were evaluated with a microcaliper, and at the end of the 8-day study the mice were euthanized, according to the Institutional Animal Care and Use Committee guidelines. • Data Analysis.
Specifically, the mice were treated with equal concentrations of the drug on day 0, 2 and 6, and tumor growth was determined with microcalipers. Control animals were treated with 100 μι, of 10% DMSO-containing PBS to match the DMSO content of the free doxorubicin injection, since the drug was dissolved in DMSO and diluted to the desired concentration in PBS. On day 6 and 8, the tumors were measured, and the change in tumor growth was determined by comparing the volume of tumors from treated animals with those of control ones.

For the molecule `COc1cccc2c1C(=O)c1c(O)c3c(c(O)c1C2=O)C[C@@](O)(C(=O)CO)C[C@@H]3O[C@H]1C[C@H](N)[C@H](O)[C@H](C)O1` [doxorubicin], the cytotoxicity at […] in assay [1] is 60%. Further, in the assay with PC3 tumors (iv day 0, 2 and 6, measured day 8, 0.28 mM doxorubicin), the “suppression of tumor growth after three injections” value was 34%. For the same molecule, the “tumor regression after two injections” value with PC3 tumors (iv day 0 and 2, measured day 6, 100 μL of 0.28 mM doxorubicin) was “some tumor growth”.
